Experimental data as given in article PMC9686989, “Exploration of Molecular Structure, DFT Calculations, and Antioxidant Activity of a Hydrazone Derivative” (Antioxidants, 2022).

Assays:
[1] = ABTS antioxidant assay (radical scavenging); settings: radical cation ABTS•+ in methanol, 60 min in the dark, absorbance at 745 nm, triplicate
Protocol: (§1) The antioxidant activity of compound 2 was measured using ABTS antioxidant assay and DPPH radical scavenging assay using ascorbic acid and quercetin as standard compounds. The antioxidant activity of compound 1 was not determined here, as it was isolated as a by-product in trace amounts. Furthermore, this compound is reported, and thus, it was believed unnecessary to pursue its antioxidant capacity.
Equal amounts of 7 mM ABTS (2,2′-azino-bis(3-ethylbenzothiazoline-6-sulphonic acid)) stock solution and 2.45 mM potassium persulfate stock solution were mixed and stored at 0 °C for 12 h in the dark to produce the radical cation ABTS^•+. The prepared radical cation ABTS^•+ solution was diluted with methanol so that the UV absorption value was below 1.000 at 745 nm. The compound 2 and reference standards, including ascorbic acid and quercetin, were dissolved in methanol to obtain 2000 µM stock solutions. Then, these solutions were diluted with methanol to 1000, 500, 250, 125, 62.5, 31.3, 15.6, 7.81, 3.91, 1.95, 0.977, 0.488, 0.244, 0.122, and 0.0610 µM solutions. Then, 0.9 mL of the ABTS^•+ solution and 0.1 mL of solutions of compound 2 or standard materials prepared above were mixed in a test tube and kept in the dark for 60 min. After 60 min incubation, the UV absorption at 745 nm was measured. All experiments were performed in triplicate. The radical scavenging rates were obtained from these UV absorption data, and the resulting IC50 values were calculated using Origin 8 (Northampton, MA, USA). Percentage (%) of ABTS radical scavenging = [(A0 − A1)/A0] × 100(1) where A0 was the absorbance of the control, and A1 was the absorbance of the treated sample.

[2] = DPPH radical scavenging assay; settings: DPPH in methanol, 30 min in the dark, absorbance at 517 nm, triplicate
Protocol: as §1
The 100 µM DPPH stock solution was prepared in absolute methanol. The 2.0 mM stock solutions of compound 2 and the reference standards ascorbic acids and quercetin were also prepared in absolute methanol. Then, these solutions were diluted with methanol to 1000, 500, 250, 100, 50, 25, 12.5, 6.25, 3.13, 1.56, 0.781, 0.391, 0.195, 0.0977, 0.0488, 0.0244, and 0.0122 µM solutions. Afterwards, 0.7 mL of the DPPH solution and 0.7 mL of solutions of compound 2 or standard materials prepared above were mixed in a test tube and kept in the dark for 30 min. After 30 min incubation, the UV absorption at 517 nm was measured. All experiments were performed in triplicate. The radical scavenging rates were obtained from these UV absorption data, and the resulting IC50 values were calculated using Origin 8. Percentage (%) of DPPH radical scavenging = [(A0 − A1)/A0] × 100(2) where A0 was the absorbance of the control, and A1 was the absorbance of the treated sample.

[3] = tested on: A549 cells; assay: Cell cytotoxicity assay (MTT); format: cell-based
Protocol: The A549 cells ([…]) were used in the cytotoxicity assay (MTT (3-(4,5-dimethylthiazol-2-yl)-2,5-diphenyltetrazolium bromide) assay) of compound 2. The A549 cells were grown in an incubator at 37 °C and 5% CO2 using DMEM media containing 2 mM glutamine and 10% FBS. Cells were trypsinized for seeding at 70–90% of cell confluency. About 7000 A549 cells per well were seeded in 96-well plates and incubated for 24 h at 37 °C in the presence of 5% CO2. Then, the media was replaced with the media containing compound 2 at various concentrations, including 0.1, 10, 25, and 50 µM, and incubated for another 24 h. Dimethyl sulfoxide (DMSO) was used as a vehicle. […] After 24 h incubation, the media was replaced with 200 µL of fresh media containing MTT solution and incubated for four hours at 37 °C. The absorbance was recorded at 570 nm to evaluate the cell viability. Each experiment was executed three times. Origin software was used for the data analysis.

Compound | IC50 [1] | IC50 [2] | decrease in cell growth compared to the control ([3]; 24 h treatment, 50 µM, MTT, DMSO control) | cytotoxicity (cell death) ([3]; 24 h treatment, 0.1–25 µM, MTT, DMSO control) | cell cytotoxicity ([3]; at 25 µM) | cytotoxicity ([3]; below 25 µM)
O=C1O[C@H]([C@@H](O)CO)C(O)=C1O [Ascorbic acid, ascorbic acid] | 13.2 ± 0.45 µM | 28.7 ± 0.65 µM |  |  |  | 
C/C(=N\N=C(/C)c1ccc(O)cc1O)c1ccc(O)cc1O [Compound 2, 4,4′-((1E,1′E)-hydrazine-1,2-diylidenebis(ethan-1-yl-1-ylidene))bis(benzene-1,3-diol)] | 4.3 ± 0.21 µM | 81.06 ± 0.72 µM | ~40% | did not show significant cell death | did not show any cell cytotoxicity | almost no cytotoxicity
O=c1c(O)c(-c2ccc(O)c(O)c2)oc2cc(O)cc(O)c12 [Quercetin, quercetin] | 3.57 ± 0.54 µM | 4.02 ± 0.058 µM |  |  |  | 
